Data on 18 compounds can be found in patent US10100027B2, “Benzofuran analogue as NS4B inhibitor” (priority 2014, dated 2018).

Structures are written as SMILES. Some results are limits rather than exact numbers.

What all share (format): cell-based
Data set [1] can be described thus: Cytotoxicity in HCV replicon cells (Cell Titer-fluor). The procedure:
(§1) The EC50 and CC50 values of anti-HCV compounds were determined by HCV genotype 1a (HCV-1a) and 1b (HCV-1b) stable transfected replication (replicon) cells. The source of genotype 1a replicon is H77 clones containing K1691R, K2040R and S2204I adaptive mutations. The source of genotype 1b replicon is Con1 clones containing E1202G, T1280I and K1846T adaptive mutations.
(§2) The compound powder was dissolved in 100% DMSO. Then the compound was diluted 5 times with 6 points, and added into the cell plate with Echo liquid handler. Ensure the final concentration of DMSO was 0.5%. Each compound was tested in duplicate.
(§3) 4) Diluting cells to 8×10^4 cells/mL with the culture medium, adding the diluted cells into the compound-containing 96-well plate (Greiner, Cat. #655090) (100 μL/well, 8000 cells/well) with automatic liquid separator (Thermo Scientific). Then place into a 37° C., 5% CO2 incubator for 3 days. Cell control well: no compound, only containing 0.5% DMSO.
5) Adding fluorescence substrate Cell Titer-fluor to the cell well, after incubation for 30 minutes, detecting the signal by microplate reader Envison (Ex at 405 nm and read at 515 nm). The effect of the compounds on the cytotoxicity of HCV replicon cells was analyzed according to the fluorescence data, which was used to calculate the CC50 values.
(§4) The EC50 or CC50 values were obtained by nonlinear fitting regression on inhibition percentage (inh %) data with GraphPad Prism software.
(A replicon is a self-replicating genome or part of one, used to study replication in cells.)

In data set [2] the test system is HCV genotype 1a (HCV-1a) replicon cells. The experiment in a line: HCV genotype 1a replicon cell assay (luciferase, Bright-Glo). As to conditions: Hepatitis C virus, 72 h, HCV-1a (H77) replicon cells, 3 days. Here is the method: as §1
(§5) HCV 1a (HCV-1a) and 1b (HCV-1b) gene subtype replicon system contains the related HCV gene subtype non-structural protein gene, G418 resistance gene NEO and luciferase gene, which results in that HCV related protein and luciferase can be stably expressed in cells. By detecting the level of expression of luciferase gene, the level of HCV replication can be determined. Therefore, the system is used as a model for screening the activity of anti-HCV compound in vitro.
as §2, §3
(§6) 6) Then adding luciferase substrate Bright-Glo, after incubation for 5 minutes, detecting the luciferase activity by microplate reader Envison (wavelength>700 nm); analyzing the anti-HCV inhibitory activity of the compounds according to luminescence data, which was used to calculate EC50 values.
as §4

Data set [3] relates to HCV genotype 1b (HCV-1b) replicon cells. As to the kind of experiment: HCV genotype 1b replicon cell assay (luciferase, Bright-Glo). The conditions noted are these: Hepatitis C virus, 72 h, HCV-1b (Con1) replicon cells, 3 days. The procedure:
as §1, §5, §2, §3, §6, §4

Take `CC1CN(C(=O)C2CCN(C(=O)c3oc4c(C(F)(F)F)cc(C5CC5)cc4c3Cl)CC2)CCO1` (stereo not drawn) [YD_0323]: the CC50 (as a rule, the concentration giving 50% cytotoxicity) at 3 days in data set [1] is over 3000 nM. The EC50 in data set [2] and in data set [3] was 100 to 1000 nM each time.
In turn, `O=C(c1oc2c(C(F)(F)F)cc(C3CC3)cc2c1Cl)N1CCC(C(=O)N2CC3CC3C2)CC1` (stereo not drawn) [YD_0324] had a 50% cytotoxic concentration (CC50) at 3 days in data set [1] of over 3000 nM. The EC50 in data set [2] and in data set [3] was 0.1 to 100 nM in each case.
For `CC1CN(C(=O)C2CCN(C(=O)c3oc4c(C(F)(F)F)cc(C5CC5)cc4c3Cl)CC2)CCN1C` (stereo not drawn) [YD_0325], the CC50 at 3 days in data set [1] is over 3000 nM. The EC50 (as a rule, the concentration needed to bring the measured effect to its halfway point) in data set [2] was in the range of 100 to 1000 nM; in data set [3], 1000 to 5000 nM.
The matching figures for `CC1CN(C(=O)C2CCN(C(=O)c3oc4c(C(F)(F)F)cc(C5CC5)cc4c3Cl)CC2)CCN1` (stereo not drawn) [YD_0326]: over 3000 nM, 100 to 1000 nM and 1000 to 5000 nM.
For `O=C(Nc1ccc(Cl)cn1)C1CCN(C(=O)c2oc3c(C(F)(F)F)cc(C4CC4)cc3c2Cl)CC1` [YD_0327], in data set [1], the CC50 at 3 days was over 3000 nM. For the same compound, the EC50 fell in the range of 100 to 1000 nM in data set [2] and 1000 to 5000 nM in data set [3].
Compound `CN(C(=O)C1CCN(C(=O)c2oc3c(C(F)(F)F)cc(C4CC4)cc3c2Cl)CC1)c1ccc(F)cn1` [YD_0329] returned a CC50 at 3 days in data set [1] of over 3000 nM. In addition, the EC50 in data set [2] and in data set [3] was 100 to 1000 nM each time.
`O=C(c1oc2c(C(F)(F)F)cc(C3CC3)cc2c1Cl)N1CCC(=O)N(C2CCCC2)CC1` [YD_0330]: the CC50 at 3 days in data set [1] was over 3000 nM. The EC50 lay in the range of 100 to 1000 nM in data set [2] and 0.1 to 100 nM in data set [3].
Turning to `O=C1CN(N2CCN(C(=O)c3oc4c(C(F)(F)F)cc(C5CC5)cc4c3Cl)CC2)C(=O)N1` [YD_0331], in data set [1], the CC50 at 3 days was over 3000 nM. In addition, the EC50 in data set [2] and in data set [3] was 0.1 to 100 nM each time.
In data set [1], `COC1CN(C(=O)C2CCN(C(=O)c3oc4c(C(F)(F)F)cc(C5CC5)cc4c3Cl)CC2)C1` [YD_0340] showed a CC50 at 3 days of over 3000 nM. In addition, the EC50 in data set [2] and in data set [3] was 100 to 1000 nM each time.
Regarding `O=C(c1oc2c(C(F)(F)F)cc(C3CC3)cc2c1Cl)N1CCC(C(=O)N2CC(F)C2)CC1` [YD_0342], the CC50 at 3 days in data set [1] is over 3000 nM. Also, the EC50 in data set [2] and in data set [3] was 0.1 to 100 nM in each case.
In turn, `CN(C)C1CN(C(=O)C2CCN(C(=O)c3oc4c(C(F)(F)F)cc(C5CC5)cc4c3Cl)CC2)C1` [YD_0343] yielded a CC50 at 3 days in data set [1] of over 3000 nM. In addition, the EC50 in data set [2] lay in the range of 100 to 1000 nM; in data set [3] it was 1000 to 5000 nM.
Compound `COC1(C)CN(C(=O)C2CCN(C(=O)c3oc4c(C(F)(F)F)cc(C5CC5)cc4c3Cl)CC2)C1` [YD_0344] gave a CC50 at 3 days in data set [1] of over 3000 nM. Further, the EC50 in data set [2] is 100 to 1000 nM; in data set [3] it was 1000 to 5000 nM.
Turning to `CC1(O)CN(C(=O)C2CCN(C(=O)c3oc4c(C(F)(F)F)cc(C5CC5)cc4c3Cl)CC2)C1` [YD_0345], the CC50 at 3 days in data set [1] was over 3000 nM. For the same compound, the EC50 in data set [2] was in the range of 100 to 1000 nM; in data set [3], 1000 to 5000 nM.
In the case of `NC1CN(C(=O)C2CCN(C(=O)c3oc4c(C(F)(F)F)cc(C5CC5)cc4c3Cl)CC2)C1` [YD_0346], the CC50 at 3 days in data set [1] is over 3000 nM. The EC50 in data set [2] and in data set [3] was 100 to 1000 nM in each case.
In data set [1], `CC1(C(N)=O)CN(C(=O)C2CCN(C(=O)c3oc4c(C(F)(F)F)cc(C5CC5)cc4c3Cl)CC2)C1` [YD_0348] had a CC50 at 3 days of over 3000 nM. In addition, the EC50 in data set [2] lay within 100 to 1000 nM; in data set [3] it was 1000 to 5000 nM.
On the same counts, the results for `O=C(c1oc2c(C(F)(F)F)cc(C3CC3)cc2c1Cl)N1CCC(C(=O)N2CC(F)(F)C2)CC1` [YD_0349] are over 3000 nM, 100 to 1000 nM and 100 to 1000 nM.
Consider `CC1CN(C(=O)C2CCN(C(=O)c3oc4c(C(F)(F)F)cc(C5CC5)cc4c3Cl)CC2)C1` [YD_0350], for which, in data set [1], the CC50 at 3 days was over 3000 nM. In addition, the EC50 in data set [2] and in data set [3] was 100 to 1000 nM in each case.
For `O=C(O)C1CCN1C(=O)C1CCN(C(=O)c2oc3c(C(F)(F)F)cc(C4CC4)cc3c2Cl)CC1` (stereo not drawn) [YD_0351], in data set [1], the CC50 at 3 days is over 3000 nM. In addition, the EC50 was in the range of 100 to 1000 nM in data set [2] and 1000 to 5000 nM in data set [3].
